# Data from US20140271831A1, “RACECADOTRIL LIQUID COMPOSITIONS” (McNeil-PPC, Inc., priority 2013, published 2014).
# Assay: Racecadotril and degradation products over time in Acetate and Citrate at pH 3.6, 4.0, 4.5 (untitled table)
# Format: physicochemical
# Parameters: key to Impurity C / Impurity G: % peak area relative to the Racecadotril peak
# Conditions: for RAC: in % (unit assumed)
# Protocol: • 1. Pipet 1 mL of Racecadotril solution into a 100 mL volumetric flask (V.F.) • 2. Dilute to volume with the same buffer used in the solution preparation. • 3. […] Parameters may be modified to optimize chromatography. • The assay of Racecadotril is determined by using the external standard injected. The degradation products levels are determined by % peak area relative to the Racecadotril peak. [table] [table] Mobil Phase A: Phosphate buffer, pH 2.5 (Buffer prep: dissolve 1 g of potassium dihydrogen phosphate in water, adjust to pH 2.5 with phosphoric acid, dilute to 1000 mL with water) Mobil Phase B: 100% Acetonitrile
smiles,measurement,setting,value
CC(=O)SCC(Cc1ccccc1)C(=O)NCC(=O)OCc1ccccc1 (racemic) [Racecadotril],Benz Alcohol,"Acetate, pH 3.6, 1 week",0.69%
same,Impurity C,"Acetate, pH 3.6, 1 week",0.93
same,Impurity G,"Acetate, pH 3.6, 1 week",1.17
same,Thiorphan,"Acetate, pH 3.6, 1 week",0%
same,RAC,"Acetate, pH 3.6, 1 week",97.21
same,Benz Alcohol,"Acetate, pH 3.6, 2 week",1.4%
same,Impurity C,"Acetate, pH 3.6, 2 week",1.87
same,Impurity G,"Acetate, pH 3.6, 2 week",1.74
same,Thiorphan,"Acetate, pH 3.6, 2 week",0.11%
same,RAC,"Acetate, pH 3.6, 2 week",94.88
same,Benz Alcohol,"Acetate, pH 3.6, 3 week",2.13%
same,Impurity C,"Acetate, pH 3.6, 3 week",2.78
same,Impurity G,"Acetate, pH 3.6, 3 week",1.93
same,Thiorphan,"Acetate, pH 3.6, 3 week",0.14%
same,RAC,"Acetate, pH 3.6, 3 week",93.01
same,Benz Alcohol,"Acetate, pH 3.6, 4 week",2.84%
same,Impurity C,"Acetate, pH 3.6, 4 week",3.56
same,Impurity G,"Acetate, pH 3.6, 4 week",3
same,Thiorphan,"Acetate, pH 3.6, 4 week",0.3%
same,RAC,"Acetate, pH 3.6, 4 week",90.15
same,Benz Alcohol,"Acetate, pH 3.6, 6 week",4.33%
same,Impurity C,"Acetate, pH 3.6, 6 week",5.17
same,Impurity G,"Acetate, pH 3.6, 6 week",3.82
same,Thiorphan,"Acetate, pH 3.6, 6 week",0.57%
same,RAC,"Acetate, pH 3.6, 6 week",85.75
same,Benz Alcohol,"Acetate, pH 3.6, 8 week",5.78%
same,Impurity C,"Acetate, pH 3.6, 8 week",6.2
same,Impurity G,"Acetate, pH 3.6, 8 week",5.28
same,Thiorphan,"Acetate, pH 3.6, 8 week",1%
same,RAC,"Acetate, pH 3.6, 8 week",80.68
same,Benz Alcohol,"Acetate, pH 3.6, Initial",0%
same,Impurity C,"Acetate, pH 3.6, Initial",0
same,Impurity G,"Acetate, pH 3.6, Initial",0.07
same,Thiorphan,"Acetate, pH 3.6, Initial",0%
same,RAC,"Acetate, pH 3.6, Initial",99.93
same,Benz Alcohol,"Acetate, pH 4.0, 1 week",0.7%
same,Impurity C,"Acetate, pH 4.0, 1 week",0.93
same,Impurity G,"Acetate, pH 4.0, 1 week",1.36
same,Thiorphan,"Acetate, pH 4.0, 1 week",0%
same,RAC,"Acetate, pH 4.0, 1 week",97.01
same,Benz Alcohol,"Acetate, pH 4.0, 2 week",1.39%
same,Impurity C,"Acetate, pH 4.0, 2 week",1.82
same,Impurity G,"Acetate, pH 4.0, 2 week",1.7
same,Thiorphan,"Acetate, pH 4.0, 2 week",0.7%
same,RAC,"Acetate, pH 4.0, 2 week",95.02
same,Benz Alcohol,"Acetate, pH 4.0, 3 week",2.09%
same,Impurity C,"Acetate, pH 4.0, 3 week",2.83
same,Impurity G,"Acetate, pH 4.0, 3 week",2.66
same,Thiorphan,"Acetate, pH 4.0, 3 week",0.19%
same,RAC,"Acetate, pH 4.0, 3 week",92.23
same,Benz Alcohol,"Acetate, pH 4.0, 4 week",2.84%
same,Impurity C,"Acetate, pH 4.0, 4 week",3.52
same,Impurity G,"Acetate, pH 4.0, 4 week",3.62
same,Thiorphan,"Acetate, pH 4.0, 4 week",0.38%
same,RAC,"Acetate, pH 4.0, 4 week",89.5
same,Benz Alcohol,"Acetate, pH 4.0, 6 week",4.28%
same,Impurity C,"Acetate, pH 4.0, 6 week",5.16
same,Impurity G,"Acetate, pH 4.0, 6 week",5.67
same,Thiorphan,"Acetate, pH 4.0, 6 week",0.71%
same,RAC,"Acetate, pH 4.0, 6 week",83.98
same,Benz Alcohol,"Acetate, pH 4.0, 8 week",5.37%
same,Impurity C,"Acetate, pH 4.0, 8 week",6.2
same,Impurity G,"Acetate, pH 4.0, 8 week",8.46
same,Thiorphan,"Acetate, pH 4.0, 8 week",1.19%
same,RAC,"Acetate, pH 4.0, 8 week",78.53
same,Benz Alcohol,"Acetate, pH 4.0, Initial",0%
same,Impurity C,"Acetate, pH 4.0, Initial",0
same,Impurity G,"Acetate, pH 4.0, Initial",0
same,Thiorphan,"Acetate, pH 4.0, Initial",0%
same,RAC,"Acetate, pH 4.0, Initial",100
same,Benz Alcohol,"Acetate, pH 4.5, 1 week",0.022%
same,Impurity C,"Acetate, pH 4.5, 1 week",0.21
same,Impurity G,"Acetate, pH 4.5, 1 week",3.17
same,Thiorphan,"Acetate, pH 4.5, 1 week",0.02%
same,RAC,"Acetate, pH 4.5, 1 week",96.33
same,Benz Alcohol,"Acetate, pH 4.5, 2 week",0.4%
same,Impurity C,"Acetate, pH 4.5, 2 week",0.4
same,Impurity G,"Acetate, pH 4.5, 2 week",6.5
same,Thiorphan,"Acetate, pH 4.5, 2 week",0.04%
same,RAC,"Acetate, pH 4.5, 2 week",92.61
same,Benz Alcohol,"Acetate, pH 4.5, 3 week",0.59%
same,Impurity C,"Acetate, pH 4.5, 3 week",0.58
same,Impurity G,"Acetate, pH 4.5, 3 week",9.43
same,Thiorphan,"Acetate, pH 4.5, 3 week",0.06%
same,RAC,"Acetate, pH 4.5, 3 week",89.29
same,Benz Alcohol,"Acetate, pH 4.5, 4 week",0.79%
same,Impurity C,"Acetate, pH 4.5, 4 week",0.72
same,Impurity G,"Acetate, pH 4.5, 4 week",11.84
same,Thiorphan,"Acetate, pH 4.5, 4 week",0.11%
same,RAC,"Acetate, pH 4.5, 4 week",86.5
same,Benz Alcohol,"Acetate, pH 4.5, 6 week",1.14%
same,Impurity C,"Acetate, pH 4.5, 6 week",1.04
same,Impurity G,"Acetate, pH 4.5, 6 week",17.32
same,Thiorphan,"Acetate, pH 4.5, 6 week",0.2%
same,RAC,"Acetate, pH 4.5, 6 week",80.25
same,Benz Alcohol,"Acetate, pH 4.5, 8 week",1.51%
same,Impurity C,"Acetate, pH 4.5, 8 week",1.25
same,Impurity G,"Acetate, pH 4.5, 8 week",21.73
same,Thiorphan,"Acetate, pH 4.5, 8 week",0.36%
same,RAC,"Acetate, pH 4.5, 8 week",75.06
same,Benz Alcohol,"Acetate, pH 4.5, Initial",0.02%
same,Impurity C,"Acetate, pH 4.5, Initial",0.02
same,Impurity G,"Acetate, pH 4.5, Initial",0.21
same,Thiorphan,"Acetate, pH 4.5, Initial",0.01%
same,RAC,"Acetate, pH 4.5, Initial",99.68
same,Benz Alcohol,"Citrate, pH 3.6, 1 week",0.79%
same,Impurity C,"Citrate, pH 3.6, 1 week",0.98
same,Impurity G,"Citrate, pH 3.6, 1 week",1.78
same,Thiorphan,"Citrate, pH 3.6, 1 week",0%
same,RAC,"Citrate, pH 3.6, 1 week",96.45
same,Benz Alcohol,"Citrate, pH 3.6, 2 week",1.72%
same,Impurity C,"Citrate, pH 3.6, 2 week",2.3
same,Impurity G,"Citrate, pH 3.6, 2 week",3.81
same,Thiorphan,"Citrate, pH 3.6, 2 week",0.13%
same,RAC,"Citrate, pH 3.6, 2 week",92.01
same,Benz Alcohol,"Citrate, pH 3.6, 3 week",2.59%
same,Impurity C,"Citrate, pH 3.6, 3 week",3.36
same,Impurity G,"Citrate, pH 3.6, 3 week",5.52
same,Thiorphan,"Citrate, pH 3.6, 3 week",0.31%
same,RAC,"Citrate, pH 3.6, 3 week",88.22
same,Benz Alcohol,"Citrate, pH 3.6, 4 week",3.38%
same,Impurity C,"Citrate, pH 3.6, 4 week",4.23
same,Impurity G,"Citrate, pH 3.6, 4 week",7.38
same,Thiorphan,"Citrate, pH 3.6, 4 week",0.47%
same,RAC,"Citrate, pH 3.6, 4 week",84.51
same,Benz Alcohol,"Citrate, pH 3.6, 6 week",5.09%
same,Impurity C,"Citrate, pH 3.6, 6 week",6.13
same,Impurity G,"Citrate, pH 3.6, 6 week",9.72
same,Thiorphan,"Citrate, pH 3.6, 6 week",1.11%
same,RAC,"Citrate, pH 3.6, 6 week",77.91
same,Benz Alcohol,"Citrate, pH 3.6, 8 week",6.64%
same,Impurity C,"Citrate, pH 3.6, 8 week",7.54
same,Impurity G,"Citrate, pH 3.6, 8 week",12.47
same,Thiorphan,"Citrate, pH 3.6, 8 week",1.8%
same,RAC,"Citrate, pH 3.6, 8 week",71.51
same,Benz Alcohol,"Citrate, pH 3.6, Initial",0%
same,Impurity C,"Citrate, pH 3.6, Initial",0
same,Impurity G,"Citrate, pH 3.6, Initial",0.09
same,Thiorphan,"Citrate, pH 3.6, Initial",0%
same,RAC,"Citrate, pH 3.6, Initial",99.91
same,Benz Alcohol,"Citrate, pH 4.0, 1 week",0.89%
same,Impurity C,"Citrate, pH 4.0, 1 week",1.23
same,Impurity G,"Citrate, pH 4.0, 1 week",1.95
same,Thiorphan,"Citrate, pH 4.0, 1 week",0%
same,RAC,"Citrate, pH 4.0, 1 week",95.93
same,Benz Alcohol,"Citrate, pH 4.0, 2 week",1.41%
same,Impurity C,"Citrate, pH 4.0, 2 week",1.82
same,Impurity G,"Citrate, pH 4.0, 2 week",3.47
same,Thiorphan,"Citrate, pH 4.0, 2 week",0.11%
same,RAC,"Citrate, pH 4.0, 2 week",93.19
same,Benz Alcohol,"Citrate, pH 4.0, 3 week",2.36%
same,Impurity C,"Citrate, pH 4.0, 3 week",2.82
same,Impurity G,"Citrate, pH 4.0, 3 week",4.79
same,Thiorphan,"Citrate, pH 4.0, 3 week",0.21%
same,RAC,"Citrate, pH 4.0, 3 week",89.91
same,Benz Alcohol,"Citrate, pH 4.0, 4 week",2.79%
same,Impurity C,"Citrate, pH 4.0, 4 week",3.43
same,Impurity G,"Citrate, pH 4.0, 4 week",6.57
same,Thiorphan,"Citrate, pH 4.0, 4 week",0.4%
same,RAC,"Citrate, pH 4.0, 4 week",86.78
same,Benz Alcohol,"Citrate, pH 4.0, 6 week",4.19%
same,Impurity C,"Citrate, pH 4.0, 6 week",4.98
same,Impurity G,"Citrate, pH 4.0, 6 week",9.24
same,Thiorphan,"Citrate, pH 4.0, 6 week",0.85%
same,RAC,"Citrate, pH 4.0, 6 week",80.7
same,Benz Alcohol,"Citrate, pH 4.0, 8 week",5.54%
same,Impurity C,"Citrate, pH 4.0, 8 week",6.22
same,Impurity G,"Citrate, pH 4.0, 8 week",11.26
same,Thiorphan,"Citrate, pH 4.0, 8 week",1.42%
same,RAC,"Citrate, pH 4.0, 8 week",75.6
same,Benz Alcohol,"Citrate, pH 4.0, Initial",0%
same,Impurity C,"Citrate, pH 4.0, Initial",0
same,Impurity G,"Citrate, pH 4.0, Initial",0
same,Thiorphan,"Citrate, pH 4.0, Initial",0%
same,RAC,"Citrate, pH 4.0, Initial",100
same,Benz Alcohol,"Citrate, pH 4.5, 1 week",0.22%
same,Impurity C,"Citrate, pH 4.5, 1 week",0.18
same,Impurity G,"Citrate, pH 4.5, 1 week",3.15
same,Thiorphan,"Citrate, pH 4.5, 1 week",0.01%
same,RAC,"Citrate, pH 4.5, 1 week",96.44
same,Benz Alcohol,"Citrate, pH 4.5, 2 week",0.4%
same,Impurity C,"Citrate, pH 4.5, 2 week",0.36
same,Impurity G,"Citrate, pH 4.5, 2 week",6.04
same,Thiorphan,"Citrate, pH 4.5, 2 week",0.03%
same,RAC,"Citrate, pH 4.5, 2 week",93.19
same,Benz Alcohol,"Citrate, pH 4.5, 3 week",0.59%
same,Impurity C,"Citrate, pH 4.5, 3 week",0.52
same,Impurity G,"Citrate, pH 4.5, 3 week",8.66
same,Thiorphan,"Citrate, pH 4.5, 3 week",0.06%
same,RAC,"Citrate, pH 4.5, 3 week",90.2
same,Benz Alcohol,"Citrate, pH 4.5, 4 week",0.79%
same,Impurity C,"Citrate, pH 4.5, 4 week",0.62
same,Impurity G,"Citrate, pH 4.5, 4 week",11.16
same,Thiorphan,"Citrate, pH 4.5, 4 week",0.1%
same,RAC,"Citrate, pH 4.5, 4 week",87.41
same,Benz Alcohol,"Citrate, pH 4.5, 6 week",1.14%
same,Impurity C,"Citrate, pH 4.5, 6 week",0.9
same,Impurity G,"Citrate, pH 4.5, 6 week",15.86
same,Thiorphan,"Citrate, pH 4.5, 6 week",0.17%
same,RAC,"Citrate, pH 4.5, 6 week",82.05
same,Benz Alcohol,"Citrate, pH 4.5, 8 week",1.51%
same,Impurity C,"Citrate, pH 4.5, 8 week",1.11
same,Impurity G,"Citrate, pH 4.5, 8 week",19.95
same,Thiorphan,"Citrate, pH 4.5, 8 week",0.29%
same,RAC,"Citrate, pH 4.5, 8 week",77.34
same,Benz Alcohol,"Citrate, pH 4.5, Initial",0.02%
same,Impurity C,"Citrate, pH 4.5, Initial",0.01
same,Impurity G,"Citrate, pH 4.5, Initial",0.19
same,Thiorphan,"Citrate, pH 4.5, Initial",0.01%
same,RAC,"Citrate, pH 4.5, Initial",99.71
